In patent US12059420B2 (BRISTOL-MYERS SQUIBB COMPANY, priority 2018, dated 2024) one finds IC50 data, which are given here for 23 compounds.

Counter-ions that a name gives are not always drawn.

As a reminder, the IC50 is the midpoint of a concentration-inhibition curve.

This experiment deals with T1, human IDO1 (Homo sapiens, UniProt P14902).
T1 construct: expressed in transfected cells
T1 sequence (P14902 whole entry): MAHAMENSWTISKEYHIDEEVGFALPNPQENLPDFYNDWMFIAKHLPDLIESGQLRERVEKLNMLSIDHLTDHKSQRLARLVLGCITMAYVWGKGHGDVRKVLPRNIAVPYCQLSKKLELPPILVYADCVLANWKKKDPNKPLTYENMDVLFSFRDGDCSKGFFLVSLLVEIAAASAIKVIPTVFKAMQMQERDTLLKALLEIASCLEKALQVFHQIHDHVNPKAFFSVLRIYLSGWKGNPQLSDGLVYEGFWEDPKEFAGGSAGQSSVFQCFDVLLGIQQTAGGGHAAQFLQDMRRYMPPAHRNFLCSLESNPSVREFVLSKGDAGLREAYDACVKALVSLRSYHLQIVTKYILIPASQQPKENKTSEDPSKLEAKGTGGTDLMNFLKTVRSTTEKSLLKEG
Nature of the experiment: IDO inhibition assay in HEK293 cells stably expressing human IDO1 (kynurenine production, Ehrlich reagent, absorbance 490 nm). It is filed as cell-based. The note with it: 20 hours incubation with compound, 500 nM reference standard = 100% inhibition, read-out: IDO1 HEK Human IC50. Here is the method: HEK293 cells were transfected with a pCDNA-based mammalian expression vector harboring human IDO1 cDNA (NM 002164.2) by electroporation. They were cultured in medium (DMEM with 10% FBS) containing 1 mg/ml G418 for two weeks. Clones of HEK293 cells that stably expressed human IDO1 protein were selected and expanded for IDO inhibition assay.
The human IDO1/HEK293 cells were seeded at 10,000 cells per 50 μL per well with RPMI/phenol red free media contains 10% FBS in a 384-well black wall clear bottom tissue culture plate (Matrix Technologies LLC) 100 nL of certain concentration of compound was then added to each well using ECHO liquid handling systems. The cells were incubated for 20 hours in 37° C. incubator with 5% CO2.
The compound treatments were stopped by adding trichloroacetic acid (Sigma-Aldrich) to a final concentration at 0.2%. The cell plate was further incubated at 50° C. for 30 minute. The equal volume supernatant (20 μL) and 0.2% (w/v) Ehrlich reagent (4-dimethylaminobenzaldehyde, Sigma-Aldrich) in glacial acetic acid were mixed in a new clear bottom 384-well plate. This plate was then incubated at RT for 30 minute. The absorbance at 490 nm was measured on Envision plate reader.
Compound IC50 values were calculated using the counts of 500 nM of a reference standard treatment as one hundred percent inhibition, and counts of no compound but DMSO treatment as zero percent inhibition.
Take `CCCN(Cc1ccccc1)c1cc(NC(=O)Cc2ccc(C)cc2)cc(-c2ccccc2S(N)(=O)=O)n1` [Example 33, N-(2-(benzyl (propyl)amino)-6-(2-sulfamoylphenyl)pyridin-4-yl)-2-(p-tolyl) acetamide]: the IC50 came to 508 nM.

Consider `CCCN(Cc1ccccc1)c1cc(NC(=O)Cc2ccc(C)cc2)cc(-c2ccccc2S(=O)(=O)NC(C)=O)n1` [Example 34, N-(2-(2-(N-acetylsulfamoyl)phenyl)-6-(benzyl(propyl)amino)pyridin-4-yl)-2-(p-tolyl) acetamide], for which the IC50 came to 237 nM. For `CCCN(Cc1ccccc1)c1cc(NC(=O)Nc2ccc(C)cc2)cc(-c2ccccc2S(=O)(=O)NC(C)=O)n1` [Example 35, N-((2-(6-(benzyl (propyl)amino)-4-(3-(p-tolyl)ureido)pyridin-2-yl)phenyl)sulfonyl) acetamide], the IC50 was determined as 256 nM. With `CCCN(Cc1ccccc1)c1cc(NC(=O)Nc2ccccc2C(F)(F)F)cc(-c2ccccc2-c2nnn[nH]2)n1` [Example 36, 1-(2-(2-(1H-tetrazol-5-yl)phenyl)-6-(benzyl(propyl)amino)pyridin-4-yl)-3-(2-(trifluoromethyl)phenyl)urea], the IC50 is 205 nM.

For `CCCN(Cc1ccccc1)c1cc(NC(=O)Nc2ccc(C)nn2)cc(-c2ccccc2-c2nnn[nH]2)n1` [Example 37, 1-(2-(2-(1H-tetrazol-5-yl)phenyl)-6-(benzyl(propyl)amino)pyridin-4-yl)-3-(6-methyl-pyridazin-3-yl) urea], the IC50 is 3140 nM.

Regarding `CCCN(Cc1ccccc1)c1cc(NC(=O)Nc2ccc(C)cc2)cc(-c2ccccc2C(N)=O)n1` [Example 38, 2-(6-(benzyl (propyl)amino)-4-(3-(p-tolyl)ureido)pyridin-2-yl) benzamide], the IC50 is 302 nM. As for `CC(C)CN(Cc1ccc(F)cc1)c1cc(Nc2ccc(F)cc2)cc(-c2ccccc2-c2nnn[nH]2)n1` [Example 39, 6-(2-(1H-tetrazol-5-yl)phenyl)-N2-(4-fluorobenzyl)-N4-(4-fluorophenyl)-N2-isobutylpyridine-2,4-diamine], the IC50 is 2.4 nM.

As for `Cc1cnc(Nc2cc(-c3ccccc3-c3nnn[nH]3)nc(N(Cc3ccc(F)cc3)CC(C)C)c2)nc1` [Example 40, 6-(2-(1H-tetrazol-5-yl)phenyl)-N2-(4-fluorobenzyl)-N2-isobutyl-N4-(5-methylpyrimidin-2-yl)pyridine-2,4-diamine, TFA], the IC50 amounted to 33.1 nM. Regarding `Cc1ccc(Nc2cc(-c3ccccc3-c3nnn[nH]3)nc(N(Cc3ccc(F)cc3)CC(C)C)c2)nn1` [Example 41, 6-(2-(1H-tetrazol-5-yl)phenyl)-N2-(4-fluorobenzyl)-N2-isobutyl-N4-(6-methylpyridazin-3-yl)pyridine-2,4-diamine, TFA], the IC50 came out at 563 nM. As to `CC(C)CN(Cc1ccc(F)cc1)c1cc(Nc2ccn3nccc3n2)cc(-c2ccccc2-c2nnn[nH]2)n1` [Example 42, 6-(2-(1H-tetrazol-5-yl)phenyl)-N2-(4-fluorobenzyl)-N2-isobutyl-N4-(pyrazolo[1,5-a]pyrimidin-5-yl)pyridine-2,4-diamine, TFA], the IC50 is 120 nM. In the case of `CC(C)CN(Cc1ccc(F)cc1)c1cc(Nc2nc3ccccc3s2)cc(-c2ccccc2-c2nnn[nH]2)n1` [Example 43, 6-(2-(1H-tetrazol-5-yl)phenyl)-N4-(benzo[d]thiazol-2-yl)-N2-(4-fluorobenzyl)-N2-isobutylpyridine-2,4-diamine, TFA], the IC50 was found to be 31.2 nM. For `CC(C)CN(Cc1ccc(F)cc1)c1cc(Nc2ncc(F)cn2)cc(-c2ccccc2-c2nnn[nH]2)n1` [Example 44, 6-(2-(1H-tetrazol-5-yl)phenyl)-N2-(4-fluorobenzyl)-N4-(5-fluoropyrimidin-2-yl)-N2-isobutylpyridine-2,4-diamine, TFA], the IC50 was found to be 35.7 nM. Next, `Cc1ncccc1Nc1cc(-c2ccccc2-c2nnn[nH]2)nc(N(Cc2ccc(F)cc2)CC(C)C)c1` [Example 45, 6-(2-(1H-tetrazol-5-yl)phenyl)-N2-(4-fluorobenzyl)-N2-isobutyl-N4-(2-methylpyridin-3-yl)pyridine-2,4-diamine, TFA]: 239 nM; `CC(C)CN(Cc1ccc(F)cc1)c1cc(Nc2ccc3c(c2)OCO3)cc(-c2ccccc2-c2nnn[nH]2)n1` [Example 46, 6-(2-(1H-tetrazol-5-yl)phenyl)-N4-(benzo[d][1,3]dioxol-5-yl)-N2-(4-fluorobenzyl)-N2-isobutylpyridine-2,4-diamine]: 1.1 nM. In the case of `CC(C)CN(Cc1ccc(F)cc1)c1cc(Nc2cccc(C(F)F)n2)cc(-c2ccccc2-c2nnn[nH]2)n1` [Example 47, 6-(2-(1H-tetrazol-5-y1)phenyl)-N4-(6-(difluoromethyl)pyridin-2-yl)-N2-(4-fluorobenzyl)-N2-isobutylpyridine-2,4-diamine], the IC50 stood at 17.2 nM. Turning to `CC(C)CN(Cc1ccc(F)cc1)c1cc(Nc2ccc(F)cn2)cc(-c2ccccc2-c2nnn[nH]2)n1` [Example 48, 6-(2-(1H-tetrazol-5-yl)phenyl)-N2-(4-fluorobenzyl)-N4-(5-fluoropyridin-2-yl)-N2-isobutylpyridine-2,4-diamine], the IC50 amounted to 10.7 nM. Turning to `Cc1cnc(Nc2cc(-c3ccccc3-c3nnn[nH]3)nc(N(Cc3ccccc3)CC(C)C)c2)cn1` [Example 49, 6-(2-(1H-tetrazol-5-yl)phenyl)-N2-benzyl-N2-isobutyl-N4-(5-methylpyrazin-2-yl)pyridine-2,4-diamine, TFA], the IC50 was determined as 31.6 nM. Take `CC(C)CN(Cc1ccccc1)c1cc(Nc2ccn3nccc3n2)cc(-c2ccccc2-c2nnn[nH]2)n1` [Example 50, 6-(2-(1H-tetrazol-5-y1)phenyl)-N2-benzyl-N2-isobutyl-N4-(pyrazolo[1,5-a]pyrimidin-5-yl)pyridine-2,4-diamine]: the half-maximal inhibitory concentration (IC50) was determined as 131 nM. Next, `Cc1cnc(Nc2cc(-c3ccccc3-c3nnn[nH]3)nc(N(Cc3ccccc3)CC(C)C)c2)nc1` [Example 51, 6-(2-(1H-tetrazol-5-yl)phenyl)-N2-benzyl-N2-isobutyl-N4-(5-methylpyrimidin-2-yl)pyridine-2,4-diamine]: 60.3 nM. In the case of `CC(C)CN(Cc1ccccc1)c1cc(Nc2nnc(-c3ccccc3)s2)cc(-c2ccccc2-c2nnn[nH]2)n1` [Example 52, 6-(2-(1H-tetrazol-5-yl)phenyl)-N2-benzyl-N2-isobutyl-N4-(5-phenyl-1,3,4-thiadiazol-2-yl)pyridine-2,4-diamine], the IC50 stood at 191 nM. As to `CC(C)CN(Cc1ccccc1)c1cc(Nc2nccc(N3CCOCC3)n2)cc(-c2ccccc2-c2nnn[nH]2)n1` [Example 53, 6-(2-(1H-tetrazol-5-yl)phenyl)-N2-benzyl-N2-isobutyl-N4-(4-morpholinopyrimidin-2-yl)pyridine-2,4-diamine, TFA], the IC50 was found to be 4.9 nM. On to `CC(C)CN(Cc1ccccc1)c1cc(Nc2ncc(F)cn2)cc(-c2ccccc2-c2nnn[nH]2)n1` [Example 55, 6-(2-(1H-tetrazol-5-yl)phenyl)-N2-benzyl-N4-(5-fluoropyrimidin-2-yl)-N2-isobutylpyridine-2,4-diamine, 1.5 TFA], for which the IC50 is 11.5 nM. Consider `CC(C)CN(Cc1ccccc1)c1cc(Nc2ccc(F)cc2F)cc(-c2ccccc2-c2nnn[nH]2)n1` [Example 56, 6-(2-(1H-tetrazol-5-yl)phenyl)-N2-benzyl-N4-(2,4-difluorophenyl)-N2-isobutylpyridine-2,4-diamine], for which the IC50 was 8.6 nM.
